What was measured:
[1] = tested on: IL-23-stimulated STAT-dependent luciferase reporter in Kit225 T cells; experiment: Kit225 T cell assay, IL-23 stimulated STAT-dependent luciferase reporter; format: cell-based, human; details: Kit225 T cells, 20 ng/mL human recombinant IL-23, 5-6 hours, luciferase; read-out: IL23 (Kit225 T Cell Inhibition Data)
Experimental: (§1) Kit225 T cells with a stably-integrated STAT-dependent luciferase reporter were plated in RPMI (Gibco) containing 10% heat-inactivated FBS (Gibco) and 100 U/mL PenStrep (Gibco). The cells were then stimulated with either 20 ng/mL human recombinant IL-23 or 200 U/mL human recombinant IFNα (PBL InterferonSource) for 5-6 hours. Luciferase expression was measured using the STEADY-GLO® Luciferase Assay System (Promega) according to the manufacturer's instructions.

[2] = tested on: IFNα-stimulated STAT-dependent luciferase reporter in Kit225 T cells; experiment: Kit225 T cell assay, IFNα stimulated STAT-dependent luciferase reporter; format: cell-based, human; details: Kit225 T cells, 200 U/mL human recombinant IFNα, 5-6 hours, luciferase; read-out: IFNα (Kit225 T Cell Inhibition Data)
Experimental: as §1

SMILES | IC50 [1] | IC50 [2]
CNC(=O)c1cnc(Nc2ccc(OC)cn2)cc1Nc1ccc(F)cc1OC [Example 161] | 0.76 µM | 0.61 µM
CNC(=O)c1cnc(Nc2cc3ccccc3cn2)cc1Nc1ccc(F)cc1OC [Example 146] | 2.16 µM | 1.45 µM
CNC(=O)c1cnc(Nc2cccc(OC)n2)cc1Nc1ccc(Cl)cc1OC [Example 108] | 0.369 µM | 0.23 µM
CNC(=O)c1cnc(Nc2ccccn2)cc1Nc1ccc(S(C)(=O)=O)cc1OC [Example 45] | 4.26 µM | 1.25 µM
CNC(=O)c1cnc(Nc2ccc3ccccc3n2)cc1NC1CCC(F)CC1 (stereo not shown) [Example 287] | 7.94 µM | 10.2 µM
CNC(=O)c1cnc(Nc2ccc(F)cn2)cc1Nc1cc(F)ccc1OC [Example 199] | 0.897 µM | 0.66 µM
CNC(=O)c1cnc(Nc2ccn(C)n2)cc1Nc1ccccc1S(C)(=O)=O [Example 437] | 0.36 µM | 0.19 µM
CNC(=O)c1cnc(Nc2cccc(C#N)n2)cc1Nc1ccccc1S(C)(=O)=O [Example 27] | 0.376 µM | 0.18 µM
CNC(=O)c1cnc(Nc2ccc(C(F)(F)F)cn2)cc1Nc1ccc(Cl)cc1OC [Example 120] | 4.51 µM | 1.88 µM
CNC(=O)c1cnc(Nc2cc(C#N)ccn2)cc1Nc1ccccc1S(C)(=O)=O [Example 30] | 0.753 µM | 0.58 µM
CNC(=O)c1cnc(Nc2cc(C)c(F)cn2)cc1Nc1cccc(C(=O)NCC2(O)CCC2)c1OC [Example 342] | 0.15 µM | 0.13 µM
CNC(=O)c1cnc(Nc2ccc(F)cn2)cc1Nc1ccc(C(=O)N2CCOCC2)cc1 [Example 245] | 3.26 µM | 3.66 µM
CNC(=O)c1cnc(Nc2cc(F)ccn2)cc1Nc1ccccc1S(C)(=O)=O [Example 23] | 0.115 µM | 0.09 µM
CCS(=O)(=O)c1ccccc1Nc1cc(Nc2cc(C#N)ccn2)ncc1C(=O)NC [Example 33] | 0.612 µM | 0.66 µM
CNC(=O)c1cnc(Nc2cnc(C)c(C)n2)cc1Nc1ccccc1S(C)(=O)=O [Example 416] | 0.09 µM | 0.08 µM
CNC(=O)c1cnc(Nc2cccc(-c3ccccc3)n2)cc1Nc1ccc(F)cc1OC [Example 150] | 2.7 µM | 1.52 µM
CNC(=O)c1cnc(Nc2ccc(C#N)c(C)n2)cc1Nc1cc(F)cc(F)c1OC [Example 139] | 0.367 µM | 0.18 µM
CNC(=O)c1cnc(Nc2cc(C)nc(C)n2)cc1Nc1cccc(-c2ncn(C)n2)c1OC [Example 372] | 0.01 µM | 0.01 µM
CNC(=O)c1cnc(Nc2ccccn2)cc1Nc1ccc(F)cc1OC [Example 147] | 1.06 µM | 0.52 µM
CNC(=O)c1cnc(Nc2ccc(C(F)(F)F)cn2)cc1Nc1cc(F)cc(F)c1OC [Example 135] | 3.42 µM | 1.53 µM
CNC(=O)c1cnc(Nc2cc(C)c(F)cn2)cc1Nc1cccc(-c2nnc(C)[nH]2)c1OC [Example 364, 6-((5-fluoro-4-methylpyridin-2-yl)amino)-4-((2-methoxy-3-(5-methyl-4H-1,2,4-triazol-3-yl)phenyl)amino)-N-methylnicotinamide] | 0.01 µM | 0.01 µM
CNC(=O)c1cnc(Nc2ccc(C)cn2)cc1Nc1ccc(F)cc1OC [Example 159] | 1.15 µM | 1.4 µM
CNC(=O)c1cnc(Nc2cccc(C)n2)cc1Nc1ccc(Cl)cc1OC [Example 109] | 0.948 µM | 0.21 µM

SMILES | IC50 [1] | IC50 [2]
CNC(=O)c1cnc(Nc2ccc(F)cn2)cc1Nc1ccc(OC(F)(F)F)cc1C(N)=O [Example 252] | 1.29 µM | 0.43 µM
CCN(CC)C(=O)c1ccc(Nc2cc(Nc3ccc(F)cn3)ncc2C(=O)NC)c(OC)c1 [Example 240] | 0.625 µM | 0.41 µM
CNC(=O)c1cnc(Nc2ccc(N3CCCC3=O)cn2)cc1Nc1ccc(F)cc1OC [Example 127] | 0.853 µM | 0.47 µM
CNC(=O)c1cnc(Nc2cnccn2)cc1Nc1ccc(F)cc1S(C)(=O)=O [Example 39] | 1.48 µM | 1.54 µM
CNC(=O)c1cnc(Nc2ccc(F)cn2)cc1Nc1ccccc1S(C)(=O)=O [Example 1] | 0.0985 µM | 0.07 µM
CNC(=O)c1cnc(Nc2ccc(Cl)cn2)cc1Nc1ccccc1S(C)(=O)=O [Example 17] | 0.104 µM | 0.1 µM
CNC(=O)c1cnc(Nc2ccc(F)cn2)cc1Nc1ccccc1OC(F)F [Example 122] | 0.535 µM | 0.25 µM
CNC(=O)c1cnc(Nc2cc(OC)ncn2)cc1Nc1ccccc1S(C)(=O)=O [Example 419] | 0.17 µM | 0.35 µM
CNC(=O)c1cnc(Nc2ccc(F)cn2)cc1Nc1cccc(C)c1C(N)=O [Example 174] | 1.03 µM | 0.56 µM
CNC(=O)c1cnc(Nc2ccc(Cl)cn2)cc1Nc1ccc(F)cc1OC [Example 158] | 4.44 µM | 2.1 µM
CNC(=O)c1cnc(Nc2cc(C)nc(C)n2)cc1Nc1cccc(-c2nc(C)nn2C)c1OC [Example 367] | 0.02 µM | 0.03 µM
CCc1cccc(Nc2cc(Nc3ccc(N4CCOCC4)cn3)ncc2C(=O)NC)c1 [Example 215] | 4.93 µM | 4.33 µM
CCOc1ccc(OCC)c(Nc2cc(Nc3ccc(N4CCOCC4)cn3)ncc2C(=O)NC)c1 [Example 229] | 0.31 µM | 0.26 µM
CNC(=O)c1cnc(Nc2ccc(F)cn2)cc1Nc1ccccc1N [Example 231] | 9.18 µM | 3.12 µM
CNC(=O)c1cnc(Nc2ccc(F)cn2)cc1Nc1ccccc1NS(C)(=O)=O [Example 279] | 0.476 µM | 0.14 µM
CNC(=O)c1cnc(Nc2ccc(C(F)(F)F)cn2)cc1Nc1cccc(-c2ncn(C)n2)c1OC [Example 375] | 0.02 µM | 0.00947 µM
CNC(=O)c1cnc(Nc2cc(C(=O)N(C)C)ccn2)cc1Nc1ccc(F)cc1OC [Example 272] | 1.06 µM | 0.6 µM
CNC(=O)c1cnc(Nc2ccncn2)cc1Nc1ccccc1S(C)(=O)=O [Example 37] | 0.69 µM | 1.15 µM
CNC(=O)c1cnc(Nc2cc(C)c(F)cn2)cc1Nc1cccc(-c2nnc[nH]2)c1OC [Example 360] | 0.03 µM | 0.00774 µM
CNC(=O)c1cnc(Nc2ccc(C)cn2)cc1Nc1ccc(Cl)cc1OC [Example 111] | 1.3 µM | 0.99 µM
CNC(=O)c1cnc(Nc2ccc(F)cn2)cc1Nc1cccc(C)c1 [Example 197] | 11.9 µM | 5.83 µM
CNC(=O)c1cnc(Nc2cc(NC)nc(C)n2)cc1Nc1cccnc1OC [Example 403] | 0.24 µM | 0.29 µM
CNC(=O)c1cnc(Nc2ccc3ccccc3n2)cc1NC1CCC(F)(F)CC1O (stereo not shown) [Example 293] | 4.78 µM | 11.4 µM

SMILES | IC50 [1] | IC50 [2]
CNC(=O)c1cnc(Nc2cc(C)c(F)cn2)cc1Nc1cccc(C(=O)NCCC(C)C)c1OC [Example 338] | 0.4 µM | 0.11 µM
CNC(=O)c1cnc(Nc2cccc(C(F)(F)F)n2)cc1Nc1ccccc1S(C)(=O)=O [Example 16] | 0.18 µM | 0.1 µM
CCCNC(=O)c1cccc(Nc2cc(Nc3cc(C)c(F)cn3)ncc2C(=O)NC)c1OC [Example 339] | 0.05 µM | 0.03 µM
CNC(=O)c1cnc(Nc2ccc(F)cn2)cc1Nc1ccc(C(=O)N2CCCC2)cc1OC [Example 248] | 0.504 µM | 0.25 µM
CNC(=O)c1cnc(Nc2cccc(C(F)(F)F)n2)cc1Nc1ccc(Cl)cc1OC [Example 117] | 1.98 µM | 0.48 µM
CCS(=O)(=O)c1ccccc1Nc1cc(Nc2ccc(F)cn2)ncc1C(=O)NC [Example 32] | 2.2 µM | 1.08 µM
CNC(=O)c1cnc(Nc2cc(C(=O)N(C)C)ccn2)cc1Nc1cc(F)cc(F)c1OC [Example 274] | 0.336 µM | 0.19 µM
CNC(=O)c1cnc(Nc2cc(C(C)(C)C)ncn2)cc1Nc1ccccc1S(C)(=O)=O [Example 421] | 0.46 µM | 0.48 µM
CNC(=O)c1cnc(Nc2ccc(F)cn2)cc1Nc1ccc(OC)cc1OC [Example 192] | 0.565 µM | 0.54 µM
CNC(=O)c1cnc(Nc2cccc(F)n2)cc1Nc1cc(F)ccc1S(C)(=O)=O [Example 54] | 0.19 µM | 0.16 µM
CNC(=O)c1cnc(Nc2ccc(C(F)(F)F)cn2)cc1NC1CCCCC1C(N)=O (stereo not shown) [Example 290] | 11.4 µM | 6.59 µM
CNC(=O)c1cnc(Nc2cc(C#N)ccn2)cc1Nc1cccc(S(C)(=O)=O)c1F [Example 35] | 4.43 µM | –
CNC(=O)c1cnc(Nc2ccc(F)cn2)cc1Nc1cc2ccccc2cc1C(N)=O [Example 253] | – | 0.44 µM
CNC(=O)c1cnc(Nc2ccc(F)cn2)cc1Nc1ccccc1S(=O)(=O)C(F)(F)F [Example 28] | – | 9.57 µM
CNC(=O)c1cnc(Nc2ccc(C(F)(F)F)cn2)cc1Nc1ccccc1C(C)(C)O [Example 181] | 6.17 µM | –
CNC(=O)c1cnc(Nc2ccc(F)cn2)cc1Nc1ccc(F)cc1C [Example 189] | – | 9.37 µM
CNC(=O)c1cnc(Nc2ccc(C(N)=O)cn2)cc1Nc1ccccc1C(N)=O [Example 93] | 0.467 µM | –
CNC(=O)c1cnc(Nc2cc(S(C)(=O)=O)ccn2)cc1Nc1cccc(F)c1OC [Example 282] | 0.511 µM | –
CNC(=O)c1cnc(Nc2cc(C#N)ccn2)cc1Nc1cccc(C)c1C(N)=O [Example 177] | 0.388 µM | –
CNC(=O)c1cnc(Nc2ccc(F)cn2)cc1Nc1cccc(OC)c1 [Example 202] | – | 6.56 µM
CNC(=O)c1cnc(Nc2cccnn2)cc1Nc1ccccc1C(C)(C)O [Example 182] | 8.85 µM | –

Source: US9315494B2, “Alkyl-amide-substituted pyridyl compounds useful as modulators of IL-12, IL-23 and/or IFNα responses” (Bristol-Myers Squibb Company, priority 2012, dated 2016)
